Values after ≈ are worked out from the molar mass of the structure shown. Where two headings read alike, the source gives them in different places.

The test system of assay [1] is C. albicans ATCC 10231 (strain A). In words: MIC determination by in vitro antifungal assay (CLSI broth dilution). The format is cell-based, Candida albicans. As to conditions: strain A = C. albicans ATCC 10231, no visible growth, 48 h at 35° C. On the procedure:
(§1) 10 mg/mL stock solutions of compounds 1a-9j were prepared in dimethyl sulfoxide (DMSO) and were stored at −20° C. in the dark. The antifungal agent amphotericin B (AmB) was purchased from VWR (Radnor PA, USA). AmB was dissolved in DMSO at a final concentration of 5 mg/mL and was stored at −20° C., protected from light. Candida albicans American Type Culture Collection (ATCC) 10231 (strain A), C. albicans ATCC 64124 (B), and C. albicans ATCC MYA-2876 (C) were obtained from Utah State University. C. albicans ATCC 90819 (D), C. albicans ATCC MYA-2310 (E), C. albicans ATCC MYA-1237 (F), C. albicans ATCC MYA-1003 (G), Candida glabrata ATCC 2001 (H), Candida krusei ATCC 6258 (I), Candida parapsilosis ATCC 22019 (J), Cryptococcus neoformans ATCC MYA-895 (M), Aspergillus terreus ATCC MYA-3633 (N), and Aspergillus flavus ATCC MYA-3631 (0) were obtained from the American Type Culture Collection (ATCC; Manassas, VA, USA). Aspergillus nidulans ATCC 38163 (P) was obtained from University of Kentucky. Clinically derived Aspergillus fumigatus NRRL 163 (Q), A. fumigatus NRRL 5109 (R), and A. fumigatus NRRL 6113 (S) were obtained from Northern Regional Research Laboratory (NRRL). Candida auris 384 (K), C. auris 390 (L), and fungal strains 381-400 (including 10 C. auris (AR Bank #381-390), 3 Candida duobushaemulonii (AR Bank #391, AR Bank #392, and AR Bank #394), 2 Candida haemulonii (AR Bank #393 and AR Bank #395), 1 Kodameae ohmeri (AR Bank #396), 1 C. krusei (AR Bank #397), 1 Candida lusitaniae (AR Bank #398), and 2 Saccharomyces cerevisiae strains (AR Bank #399 and AR Bank #400)) were part of a larger fungal library from the AR Bank maintained by the Centers for Disease Control and Prevention (CDC; Atlanta, GA, USA). Filamentous fungi and yeasts were cultivated at 35° C. in RPMI 1640 medium (with L-glutamine, without sodium bicarbonate, Sigma-Aldrich, St. Louis, MO) buffered to a pH of 7.0 with 0.165 M morpholinepropanesulfonic acid (MOPS) buffer (Sigma-Aldrich). For cytotoxicity assays, HepG2 and the mouse macrophage cell line J774A.1 were obtained from University of Kentucky. The human embryonic kidney cell line, HEK-293, was bought from the ATCC. Mammalian cells were grown in Dulbecco's Modified Eagle's Medium (DMEM) (from VWR) with 10% fetal bovine serum (FBS) (from VWR) and 1% Pen/Strep (from ATCC). Cell lines were cultured at 37° C. with 5% CO2 and passaged by trypsinization with 0.05% trypsin: 0.53 mM EDTA (from Sigma-Aldrich).
(§2) The MIC values of compounds 1a-9j against yeast cells (strains A-P and 381-400) were determined in 96-well plates as described in the CLSI documents M27-A3 and M38-A2 with minor modifications.^2 A single colony of freshly prepared yeast cells was used to inoculate 5 mL of yeast extract peptone dextrose (YPD) broth prior to incubation overnight with shaking at 200 rpm at 35° C. From the actively growing yeast culture, 100 µL were then transferred to 900 μL of RPMI 1640 medium and re-adjusted to achieve OD600 of 0.12 (˜1×10^6 CFU/mL). The cell suspension was further diluted to achieve 1:100 in RPMI 1640 medium. 100 μL of cells were added to the wells of a 96-well microtiter plates that contained 100 µL of the compound solution to obtain concentrations of 0.06-31.3 μg/mL of compounds 1a-9j or AmB prior to incubation for 48 h at 35° C. […]

The subject of assay [2] is C. albicans ATCC 90819 (D). As to the kind of experiment: MIC determination by in vitro antifungal assay. It is filed as cell-based, Candida albicans. As to the method:
as §1, §2

Assay [3] has as its system C. albicans ATCC MYA-1237 (F). As to the kind of experiment: MIC determination by in vitro antifungal assay. The note with it: strain F = C. albicans ATCC MYA-1237(R). It is filed as cell-based, Candida albicans. On the procedure: as §1, §2
For assay [4], the system named is C. albicans ATCC MYA-2876 (C). As to the kind of experiment: MIC determination by in vitro antifungal assay. The format is cell-based, Candida albicans. As to conditions: strain C = C. albicans ATCC MYA-2876(S). On the procedure:
as §1, §2

Assay [5] has as its system Candida glabrata ATCC 2001 (H). In words: MIC determination by in vitro antifungal assay. It is filed as cell-based. The note with it: ATCC 2001 in text. On the procedure:
as §1, §2

The subject of assay [6] is Aspergillus flavus ATCC MYA-3631 (O). In words: MIC determination by in vitro antifungal assay. It is filed as cell-based. As to conditions: Aspergillus flavus; strain O = A. flavus ATCC MYA-3631; read-out: MIC. On the procedure: as §1
(§3) The MIC values of compounds 1a-9j against yeast cells (strains A-P and 381-400) were determined in 96-well plates as described in the CLSI documents M27-A3 and M38-A2 with minor modifications.^2 A single colony of freshly prepared yeast cells was used to inoculate 5 mL of yeast extract peptone dextrose (YPD) broth prior to incubation overnight with shaking at 200 rpm at 35° C. From the actively growing yeast culture, 100 µL were then transferred to 900 μL of RPMI 1640 medium and re-adjusted to achieve OD600 of 0.12 (˜1×10^6 CFU/mL). The cell suspension was further diluted to achieve 1:100 in RPMI 1640 medium. 100 μL of cells were added to the wells of a 96-well microtiter plates that contained 100 µL of the compound solution to obtain concentrations of 0.06-31.3 μg/mL of compounds 1a-9j or AmB prior to incubation for 48 h at 35° C.
(§4) Finally, the activity of these monohydrazides was explored against […] non-Candida strains: Cryptococcus neoformans ATCC MYA-895 (M), Aspergillus terreus ATCC MYA-3633 (N), Aspergillus flavus ATCC MYA-3631 (O), Aspergillus nidulans ATCC 38163 (P), Aspergillus fumigatus NRRL 163 (Q), A. fumigatus NRRL 5109 (R), and A. fumigatus NRRL 6113 (S) (Tables 1A and 1B). The double dilution method was used with concentrations ranging from 0.06 to 31.3 j·tg mL^−1 for monohydrazides 1a-9j, and the commercially available positive antifungal control amphotericin B (AmB).

Assay [7] deals with Aspergillus fumigatus NRRL 163 (Q). As to the kind of experiment: MIC determination by in vitro antifungal assay. The note with it: Aspergillus fumigatus, NRRL163; strain Q = A. fumigatus NRRL 163; read-out: MIC. It is filed as cell-based. On the procedure:
as §1, §3, §4

Assay [8] deals with Aspergillus nidulans ATCC 38163 (P). In words: MIC determination by in vitro antifungal assay. The format is cell-based. As to the method: as §1, §3, §4
Assay [9] deals with Cryptococcus neoformans ATCC MYA-895 (M). As to the kind of experiment: MIC determination by in vitro antifungal assay. As to conditions: strain M = C. neoformans ATCC MYA-895. The format is cell-based. On the procedure:
as §1, §3, §4

The subject of assay [10] is A. fumigatus NRRL 5109 (R). In words: MIC determination by in vitro antifungal assay. The format is cell-based, Aspergillus fumigatus. The note with it: Aspergillus fumigatus, NRRL5109; strain R = A. fumigatus NRRL 5109; read-out: MIC. As to the method: as §1, §3, §4
Assay [11] concerns A. fumigatus NRRL 6113 (S). As to the kind of experiment: MIC determination by in vitro antifungal assay. The format is cell-based, Aspergillus fumigatus. As to conditions: Aspergillus fumigatus, NRRL6113; strain S = A. fumigatus NRRL 6113; read-out: MIC. On the procedure: as §1, §3, §4
[12] abbreviates: Candida albicans, read-out: MIC.

On to `O=C(NNc1ccc(F)cc1F)c1cccc(Br)n1` [Compound 6g], for which the MIC in assay [1] (Candida albicans, ATCC10231, 48 h, read-out: MIC) came to 1.95 µg/mL (≈ 5.94 µM); in [1] it was 3.9 μg/mL^−1; in assay [2] (Candida albicans, ATCC90819, strain D = C. albicans ATCC 90819(R), read-out: MIC), 1.95 µg/mL (≈ 5.94 µM); in assay [2] (strain D = C. albicans ATCC 90819(R)) it was 3.9 μg/mL^−1; in assay [3] (setting [12]), 0.98 µg/mL (≈ 2.99 µM); in [3] it was 1.95 μg/mL^−1. The MIC was 0.49 µg/mL (≈ 1.49 µM) in assay [4] (setting [12]); 0.98 μg/mL^−1 in assay [4]; 7.8 µg/mL (≈ 23.8 µM) in assay [5] (Nakaseomyces glabratus, ATCC 2001 / ATCC 2004, strain H = C. glabrata ATCC 2004 (footnote), read-out: MIC); 15.6 μg/mL^−1 in assay [5] (strain H = C. glabrata ATCC 2004 (footnote)); over 31.3 µg/mL in assay [6]; over 31.3 µg/mL in assay [7]. The MIC in [8] (Aspergillus nidulans, ATCC38163, strain P = A. nidulans ATCC 38163, read-out: MIC) was 3.9 µg/mL (≈ 11.9 µM); in assay [8] (strain P = A. nidulans ATCC 38163) it was 1.95 μg/mL^−1; in [9] (Cryptococcus neoformans, read-out: MIC), 0.98 µg/mL (≈ 2.99 µM); in assay [9] it was 0.49 μg/mL^−1; in assay [10], 31.3 µg/mL (≈ 95.4 µM); in assay [11] it was over 31.3 µg/mL.

Values taken from US20240425464A1, “Substituted Monohydrazides as Potent Antifungal Agents” (University of Kentucky Research Foundation, priority 2023, published 2024).
